This is an account of results in patent publication US20230357179A1, “RAF KINASE INHIBITORS AND METHODS OF USE THEREOF” (Deciphera Pharmaceuticals, LLC, priority 2021, published 2023).

Molecules are shown by their SMILES.

Test [1] has as its target T1, C-Raf kinase (Homo sapiens, UniProt P04049, Y340D/Y341D).
T1 construct: Y340D,; GST (N); purchased Sigma
In words: Biochemical assay for C-Raf.1 (coupled pyruvate kinase/lactate dehydrogenase). As to conditions: read-out: CRAF.1 IC50. In a few lines: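 NADH depletion at 340 nm monitored continuously for 6 h at 30° C, with rates taken over 4–5 h. The coupled pyruvate kinase/lactate dehydrogenase reaction used 1 mM ATP, 30.1 nM MEK substrate and 0.43 nM kinase at pH 7.5. IC50 was fitted sigmoidally from percent inhibition of serially diluted compound.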

Test [2] deals with T2, B-Raf (V600E) kinase (Homo sapiens, UniProt P15056, V600E).
T2 construct: B-Raf (V600E) residues 416-766 with a; GST (N); purchased SignalChem
In words: Biochemical assay for B-Raf (V600E).1 (coupled pyruvate kinase/lactate dehydrogenase). As to conditions: read-out: BRAF V600E.1 IC50. In a few lines: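 IC50 came from four-parameter sigmoidal fits of percent inhibition, using reaction rates over 3-4 h. Continuous A340 reading (6 h, 30 °C) of a pyruvate kinase/lactate dehydrogenase-coupled reaction: B-Raf V600E 0.03 nM, MEK 30.1 nM, ATP 1 mM, Tris pH 7.5, 1% DMSO.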

Test [3] deals with T3, A-Raf kinase (Homo sapiens, UniProt P10398, Y301D/Y302D).
T3 construct: purchased Sigma
Put plainly: Biochemical assay for A-Raf.1 (coupled pyruvate kinase/lactate dehydrogenase). As to conditions: read-out: ARAF.1 IC50. In a few lines:
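IC50 values came from four-parameter sigmoidal fits of percent inhibition, using rates over the 4 to 5 h window of continuous A340 readings (6 h, 30° C). The coupled PK/LDH system tracked NADH oxidation during 5.55 nM A-Raf activity on 30.1 nM MEK at 1 mM ATP, buffer pH 7.5.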

Test [4] relates to H2405 cells. In words: H2405 cell proliferation assay (1), resazurin, 96-well. The test is classed as cell-based. As to conditions: Homo sapiens, NCI-H2405, inhibition of cell proliferation. Put shortly: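 This is a resazurin viability readout (excitation 540 nm, emission 600 nm) taken 5-6 h after adding 440 μM resazurin solution, giving IC50 values.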
On the technique in general: Resazurin is reduced to fluorescent resorufin, in cell work by metabolically active cells.

T1 sequence (P04049 307-648 Y340D/Y341D): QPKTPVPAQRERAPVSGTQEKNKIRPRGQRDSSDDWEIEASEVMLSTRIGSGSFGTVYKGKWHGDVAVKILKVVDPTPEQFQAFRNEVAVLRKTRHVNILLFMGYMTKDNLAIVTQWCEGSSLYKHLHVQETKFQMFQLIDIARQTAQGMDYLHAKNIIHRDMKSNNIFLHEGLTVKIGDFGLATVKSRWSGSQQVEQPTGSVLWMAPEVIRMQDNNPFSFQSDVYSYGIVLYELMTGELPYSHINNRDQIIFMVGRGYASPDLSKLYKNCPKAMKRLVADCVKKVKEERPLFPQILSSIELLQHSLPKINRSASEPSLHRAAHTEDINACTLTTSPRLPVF
T2 sequence (P15056 416-766 V600E): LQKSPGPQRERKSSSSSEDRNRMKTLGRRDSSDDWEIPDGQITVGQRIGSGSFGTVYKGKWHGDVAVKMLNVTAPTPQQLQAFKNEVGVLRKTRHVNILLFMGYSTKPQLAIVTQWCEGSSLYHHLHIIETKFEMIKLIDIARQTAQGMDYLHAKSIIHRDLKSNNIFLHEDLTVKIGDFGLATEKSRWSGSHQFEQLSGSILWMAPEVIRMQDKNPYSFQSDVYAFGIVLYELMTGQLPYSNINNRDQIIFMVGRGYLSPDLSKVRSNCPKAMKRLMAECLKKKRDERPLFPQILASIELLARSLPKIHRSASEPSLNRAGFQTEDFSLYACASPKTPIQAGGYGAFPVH
T3 sequence (P10398 with tags, fused parts or gaps Y301D/Y302D): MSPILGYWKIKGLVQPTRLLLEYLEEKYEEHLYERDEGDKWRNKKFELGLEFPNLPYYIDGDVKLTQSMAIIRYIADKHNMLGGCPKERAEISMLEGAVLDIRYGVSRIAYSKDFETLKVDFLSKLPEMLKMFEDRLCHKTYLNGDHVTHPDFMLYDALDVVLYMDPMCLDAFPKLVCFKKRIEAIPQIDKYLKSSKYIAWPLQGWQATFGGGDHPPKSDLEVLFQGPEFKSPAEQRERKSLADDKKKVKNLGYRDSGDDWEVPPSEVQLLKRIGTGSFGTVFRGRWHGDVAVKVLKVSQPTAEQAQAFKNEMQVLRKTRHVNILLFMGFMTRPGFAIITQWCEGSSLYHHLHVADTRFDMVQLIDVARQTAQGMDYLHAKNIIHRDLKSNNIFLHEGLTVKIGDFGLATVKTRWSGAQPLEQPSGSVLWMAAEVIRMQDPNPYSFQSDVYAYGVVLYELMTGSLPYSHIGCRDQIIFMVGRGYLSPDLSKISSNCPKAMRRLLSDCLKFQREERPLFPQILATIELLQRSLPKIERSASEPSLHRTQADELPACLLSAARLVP

As to `CC(=O)Nc1cc(-c2cc(-c3cc(NC(=O)NCC45CC(F)(C4)C5)c(F)cc3C)cc(OCCO)n2)ccn1` [Example 52], the results for the concentration for half-maximal inhibition (IC50) in test [1], in test [2] and in test [3] were ≤ 0.1 µM, ≤ 0.1 µM and > 1 µM, respectively.
`CC(=O)Nc1cc(-c2cc(-c3cc(NC(=O)NCCC4(C)CC4)ccc3C)cc(N3CCOCC3)n2)ccn1` [Example 57]: the IC50 (as a rule, the concentration that gives 50% inhibition) was ≤ 0.1 µM in test [1], ≤ 0.1 µM in test [2] and 0.5 to 1 µM in test [3].
On to `COC(=O)Nc1cc(-c2nccc(-c3cc(NC(=O)N4CCC(C(F)(F)F)C4)ccc3C)n2)ccn1` (stereo not shown) [Example 193], for which the IC50 is 1 to 10 µM in test [4], ≤ 0.1 µM in test [1], 0.1 to 0.5 µM in test [2] and > 1 µM in test [3].
In the case of `CC(=O)Nc1cc(-c2cc(-c3cc(NC(=O)NC4CCC(F)(F)CC4)c(F)cc3C)cc(OCCO)n2)ccn1` [Example 63], the IC50 in test [1] was ≤ 0.1 µM; in test [2], ≤ 0.1 µM; in test [3], 0.5 to 1 µM.
For `Cc1cc(F)c(NC(=O)NCCC(C)(C)C#N)cc1-c1cccc(-c2cc(NC(=O)C3CC3)ncn2)c1` [Example 67], the IC50 in test [4] is 0.1 to 0.5 µM; in test [1], ≤ 0.1 µM; in test [2] it was ≤ 0.1 µM; in test [3], 0.1 to 0.5 µM.
In the case of `Cc1ccc(NC(=O)N2CC[C@H](C(F)(F)F)C2)cc1-c1cncc(-c2cc(NC(=O)C3CC3)ncn2)c1` [Example 195], the IC50 in test [4] is 0.1 to 0.5 µM; in test [1] it was ≤ 0.1 µM; in test [2] it was ≤ 0.1 µM; in test [3], 0.5 to 1 µM.
In the case of `CNC(=O)c1cc(-c2cc(-c3cc(NC(=O)Nc4ccnc(C(C)(C)C#N)c4)ccc3C)ccn2)ccn1` [Example 69], the 50% inhibitory concentration (IC50) in test [4] was 1 to 10 µM; in test [1], ≤ 0.1 µM; in test [2], ≤ 0.1 µM; in test [3], > 1 µM.
Take `CNC(=O)c1cc(-c2cnnc(-c3cc(NC(=O)N4CC[C@@H](OC(F)(F)F)C4)ccc3C)c2)ccn1` [Example 182]: the IC50 was 1 to 10 µM in test [4], 0.1 to 0.5 µM in test [1], ≤ 0.1 µM in test [2] and > 1 µM in test [3].
The corresponding values for `CC(=O)Nc1cc(-c2cc(-c3cc(NC(=O)N[C@H]4C[C@](C)(F)C4)ccc3C)cc(OCCO)n2)ccn1` [Example 49] are 0.1 to 0.5 µM, ≤ 0.1 µM, ≤ 0.1 µM and 0.1 to 0.5 µM.
As for `Cc1cc(F)c(NC(=O)NCCC2(C)CC2)cc1-c1cccc(-c2ccnc(NC(=O)C3CC3)c2)c1` [Example 64], the IC50 in test [1] was ≤ 0.1 µM; in test [2], ≤ 0.1 µM; in test [3], > 1 µM.
Consider `Cc1ccc(NC(=O)N2CCC(CC(F)(F)F)C2)cc1-c1cncc(-c2cc(NC(=O)C3CC3)ncn2)c1` (stereo not shown) [Example 194], for which the IC50 was 0.1 to 0.5 µM in test [4], ≤ 0.1 µM in test [1], ≤ 0.1 µM in test [2] and > 1 µM in test [3].
As for `CC(=O)Nc1cc(-c2cc(-c3cc(NC(=O)NCCC(C)(C)C#N)c(F)cc3C)cc(C3CC3)n2)ccn1` [Example 59], the IC50 in test [1] is ≤ 0.1 µM; in test [2], ≤ 0.1 µM; in test [3] it was 0.1 to 0.5 µM.
For `Cc1ccc(NC(=O)NCCC(C)(C)C)cc1-c1ccnc(N2CCOCC2)c1` [Example 18], the IC50 is ≤ 0.1 µM in test [1], ≤ 0.1 µM in test [2] and > 1 µM in test [3].
Take `COC[C@H]1CCN(C(=O)Nc2cnc(C)c(-c3ccnc(-c4ccnc(NC(=O)OC)c4)c3)c2)C1` [Example 176]: the IC50 in test [4] was 1 to 10 µM; in test [1], 0.1 to 0.5 µM; in test [2] it was ≤ 0.1 µM; in test [3] it was > 1 µM.
In the case of `Cc1cc(F)c(NC(=O)NCCC2(C)CC2)cc1-c1cc(OCC(C)(C)O)nc(-c2ccncc2)c1` [Example 34], the IC50 in test [4] is 0.1 to 0.5 µM; in test [1], ≤ 0.1 µM; in test [2] it was ≤ 0.1 µM; in test [3], > 1 µM.
With `COC(C)(C)CCNC(=O)Nc1ccc(C)c(-c2cc(-c3cnn(C)c3)nc(N3CCOCC3)c2)c1` [Example 38], the values for the IC50 in test [1], in test [2] and in test [3] were ≤ 0.1 µM, ≤ 0.1 µM and > 1 µM, respectively.
For `Cc1ccc(NC(=O)N2CC[C@@H](C(F)(F)F)C2)cc1-c1cccc(-c2cc(NC(=O)C3CC3)ncn2)c1` [Example 201], the IC50 is 0.1 to 0.5 µM in test [4], ≤ 0.1 µM in test [1], ≤ 0.1 µM in test [2] and > 1 µM in test [3].
For `COC(=O)Nc1cc(-c2cc(-c3cc(NC(=O)NCCC4(C)CC4)ccc3F)cc(OCCO)n2)ccn1` [Example 187], the IC50 in test [4] was 1 to 10 µM; in test [1], ≤ 0.1 µM; in test [2] it was 0.1 to 0.5 µM; in test [3] it was > 1 µM.
As for `COC(=O)Nc1cc(-c2cncc(-c3cc(NC(=O)N4CC[C@H](C(F)(F)F)C4)ccc3C)c2)ccn1` [Example 211], the IC50 was 0.1 to 0.5 µM in test [4], ≤ 0.1 µM in test [1], ≤ 0.1 µM in test [2] and > 1 µM in test [3].
In the case of `COC(=O)Nc1cc(-c2cnnc(-c3cc(NC(=O)N4CCC(C(C)(C)O)C4)ccc3C)c2)ccn1` (stereo not shown) [Example 206], the IC50 in test [1] was 0.1 to 0.5 µM; in test [2] it was > 1 µM; in test [3] it was > 1 µM.
For `COC(=O)Nc1cc(-c2cc(-c3cc(NC(=O)N4CC[C@H](C(F)(F)F)C4)ccc3C)nc(C)n2)ccn1` [Example 223], the IC50 was 1 to 10 µM in test [4], 0.1 to 0.5 µM in test [1], > 1 µM in test [2] and > 1 µM in test [3].
With `CNC(=O)c1cc(-c2cc(-c3cc(NC(=O)NC4CCCCC4)c(F)cc3C)cc(OCCO)n2)ccn1` [Example 205], the figures for the IC50 in test [1], in test [2] and in test [3] were ≤ 0.1 µM, ≤ 0.1 µM and > 1 µM, respectively.
Turning to `Cc1ccc(NC(=O)Nc2ccnc(C(C)(C)C#N)c2)cc1-c1ccnc(-c2ccnc(C(=O)NC3CC3)c2)c1` [Example 68], the IC50 in test [1] is ≤ 0.1 µM; in test [2], ≤ 0.1 µM; in test [3], > 1 µM.
For the compound `Cc1ccc(NC(=O)N[C@H]2C[C@](C)(F)C2)cc1-c1cc(OCCO)nc(-c2ccnc(NC(=O)CN(C)C)c2)c1` [Example 50], the results for the IC50 in test [1], in test [2] and in test [3] were ≤ 0.1 µM, ≤ 0.1 µM and > 1 µM, respectively.
As to `CC(=O)Nc1cc(-c2cc(-c3cc(NC(=O)NCCC4(C)CC4)c(F)cc3C)cc(C)n2)ccn1` [Example 55], the IC50 was ≤ 0.1 µM in test [1], ≤ 0.1 µM in test [2] and 0.1 to 0.5 µM in test [3].
For the compound `COC(C)(C)CCNC(=O)Nc1ccc(C)c(-c2cc(-c3ccnc(NC(C)=O)c3)n(C)c(=O)c2)c1` [Example 60], the figures for the IC50 in test [1], in test [2] and in test [3] were 0.1 to 0.5 µM, ≤ 0.1 µM and > 1 µM, respectively.
Regarding `CC(=O)Nc1cc(-c2cc(-c3cc(NC(=O)Nc4ccc(C(F)(F)F)cc4)cnc3C)ccn2)ccn1` [Example 48], the IC50 was ≤ 0.1 µM in test [1], ≤ 0.1 µM in test [2] and > 1 µM in test [3].
As for `CC(=O)Nc1cc(-c2cc(-c3cc(NC(=O)NC4CCCCC4)c(F)cc3C)cc(OCCO)n2)ccn1` [Example 53], the IC50 in test [1] is ≤ 0.1 µM; in test [2], ≤ 0.1 µM; in test [3], 0.1 to 0.5 µM.
Consider `Cc1cc(F)c(NC(=O)NCCC2(C)CC2)cc1-c1cccc(-c2cc(NC(=O)C3CC3)ncn2)c1` [Example 65], for which the results for the IC50 in test [1], in test [2] and in test [3] were ≤ 0.1 µM, ≤ 0.1 µM and > 1 µM, respectively.
With `CC(=O)Nc1cc(-c2cc(-c3cc(NC(=O)NCCC4(C)CC4)c(F)cc3C)cc(C3CC3)n2)ccn1` [Example 51], the IC50 in test [1] is ≤ 0.1 µM; in test [2], ≤ 0.1 µM; in test [3], > 1 µM.
As for `Cc1ccc(NC(=O)N[C@H]2C[C@](C)(F)C2)cc1-c1cc(-c2ccnc(NC(=O)C3CC3)c2)nc(C2CC2)c1` [Example 61], the IC50 in test [1] was ≤ 0.1 µM; in test [2] it was ≤ 0.1 µM; in test [3] it was > 1 µM.
As to `COC(C)(C)CCNC(=O)Nc1cc(-c2cccc(-c3ccnc(NC(C)=O)c3)c2)c(C)cc1F` [Example 71], the concentration for half-maximal inhibition (IC50) is ≤ 0.1 µM in test [1], ≤ 0.1 µM in test [2] and 0.1 to 0.5 µM in test [3].
Take `Cc1ccc(NC(=O)N2CCC(CC(F)(F)F)C2)cc1-c1cncc(-c2cc(N)ncn2)c1` (stereo not shown) [Example 207]: the IC50 was ≤ 0.1 µM in test [1], 0.5 to 1 µM in test [2] and > 1 µM in test [3].
For the compound `CC(=O)Nc1cc(-c2cc(-c3cc(NC(=O)NC4CC(C)(C)C4)c(F)cc3C)cc(OCCO)n2)ccn1` [Example 47], the IC50 was ≤ 0.1 µM in test [1], ≤ 0.1 µM in test [2] and 0.1 to 0.5 µM in test [3].
On to `CNC(=O)c1cc(-c2cccc(-c3cc(NC(=O)NCCC(C)(C)OC)c(F)cc3C)c2)ccn1` [Example 72], for which the concentration for half-maximal inhibition (IC50) is ≤ 0.1 µM in test [1], ≤ 0.1 µM in test [2] and > 1 µM in test [3].
As for `CC(=O)Nc1cc(-c2cc(-c3cc(NC(=O)NCCC4(C(F)(F)F)CC4)c(F)cc3C)cc(C3CC3)n2)ccn1` [Example 54], the values for the IC50 in test [1], in test [2] and in test [3] were ≤ 0.1 µM, ≤ 0.1 µM and > 1 µM, respectively.
